This passage reports IC50 results from patent US20240228506A1, “RIPK1 INHIBITORS AND METHODS OF USE” (Merck Sharp & Dohme LLC, priority 2021, published 2024).

The assay deals with T1, GST-RIPK1 (recombinant GST-RIPK1 kinase domain (residues 1-327)) (Homo sapiens, UniProt Q13546).
T1 construct: recombinant GST-RIPK1 kinase domain (residues 1-327) enzyme; made in house; host or cells: baculovirus-transfected Sf21 insect cells
T1 sequence (Q13546 1-327): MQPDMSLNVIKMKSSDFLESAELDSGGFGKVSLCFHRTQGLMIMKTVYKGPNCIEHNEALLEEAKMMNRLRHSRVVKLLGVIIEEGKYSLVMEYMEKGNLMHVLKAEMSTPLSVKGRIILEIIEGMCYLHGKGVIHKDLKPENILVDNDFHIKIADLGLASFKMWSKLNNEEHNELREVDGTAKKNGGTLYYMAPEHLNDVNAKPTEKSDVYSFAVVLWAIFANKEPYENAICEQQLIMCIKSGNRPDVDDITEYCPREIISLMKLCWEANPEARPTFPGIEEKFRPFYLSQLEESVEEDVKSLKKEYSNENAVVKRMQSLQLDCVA
In words: RIPK1-ADP-Glo enzymatic assay. It counts as biochemical. Particulars: 25 nM GST-RIPK1, 300 μM ATP, 3 μM dephosphorylated-MBP; 30 minutes pre-incubation, 150 minutes reaction; ten-point titration. In a few lines:
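Ten-point 1:3 titrations from 100000 nM, 1% DMSO, were preincubated 30 min with 25 nM GST-RIPK1 (1-327) before starting with 300 μM ATP plus 3 μM dephosphorylated MBP; 150 min reaction. ADP-Glo luminescence measured ATP-to-ADP conversion; EC50 by four-parameter sigmoidal regression.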

The term IC50 denotes the midpoint of a concentration-inhibition curve. On to `C#CC(C)(C)C(=O)N1C[C@@H]2C[C@H]1c1cncc(C#N)c1O2` [Compound 1-96, (2S,5S)-4-(2,2-dimethylbut-3-ynoyl)-2,3,4,5-tetrahydro-2,5-methanopyrido[3,4-f][1,4]oxazepine-9-carbonitrile], for which the IC50 was determined as 148 nM. Next, `CC(C)C1(C(=O)N2C[C@@H]3C[C@H]2c2cncc(C#N)c2O3)CC1` [Compound 1-79, (2S,5S)-4-(1-isopropylcyclopropane-1-carbonyl)-2,3,4,5-tetrahydro-2,5-methanopyrido[3,4-f][1,4]oxazepine-9-carbonitrile]: 446 nM.

For the compound `COc1cccc(C#Cc2cncc3c2O[C@H]2C[C@@H]3N(C(=O)C34CCC(F)(CC3)C4)C2)c1` [Compound 2-98, (4-fluorobicyclo[2.2.1]heptan-1-yl)((2S,5S)-9-((3-methoxyphenyl)ethynyl)-2,3-dihydro-2,5-methanopyrido[3,4-f][1,4]oxazepin-4(5H)-yl)methanone], the IC50 is 13 nM. Next, `N#CC12CCC(C(=O)N3C[C@@H]4C[C@H]3c3cncc(F)c3O4)(C1)C2` [Compound 2-24, 4-((2S,5S)-9-fluoro-2,3,4,5-tetrahydro-2,5-methanopyrido[3,4-f][1,4]oxazepine-4-carbonyl)bicyclo[2.1.1] hexane-1-carbonitrile]: 111 nM.

Turning to `N#Cc1cncc2c1O[C@H]1C[C@@H]2N(C(=O)C23CSC(C2)C3)C1` [Compound 1-47, (2S,5S)-4-(2-thiabicyclo[2.1.1]hexane-4-carbonyl)-2,3,4,5-tetrahydro-2,5-methanopyrido[3,4-f][1,4]oxazepine-9-carbonitrile], the IC50 came out at 22 nM. Next, `CC1(C(=O)N2C[C@@H]3C[C@H]2c2cncc(C#N)c2O3)CCCC1(F)F` (single isomer, unassigned) [Compound 1-39]: 31 nM. Next, `CC(C(=O)N1C[C@@H]2C[C@H]1c1cncc(C#N)c1O2)(C(F)F)C1CC1` (single isomer, unassigned) [Compound 1-88, (2S,5S)-4-(2-(R or S)-cyclopropyl-3,3-difluoro-2-methylpropanoyl)-2,3,4,5-tetrahydro-2,5-methanopyrido[3,4-f][1,4]oxazepine-9-carbonitrile]: 96 nM. Next, `N#Cc1cncc2c1O[C@H]1C[C@@H]2N(C(=O)C23CCC(C2)OC3)C1` (single isomer, unassigned) [Compound 1-51, (2S,5S)-4-[(S or R)-2-oxabicyclo[2.2.1]heptane-4-carbonyl]-2,3,4,5-tetrahydro-2,5-methanopyrido[3,4-f][1,4]oxazepine-9-carbonitrile]: 367 nM; `CC1(C(=O)N2C[C@@H]3C[C@H]2c2cncc(C#N)c2O3)CCOC1` (mixture of isomers) [Compound 1-67, (2S,5S)-4-(3-(S and R)-methyltetrahydrofuran-3-carbonyl)-2,3,4,5-tetrahydro-2,5-methanopyrido[3,4-f][1,4]oxazepine-9-carbonitrile]: 640 nM. Turning to `N#Cc1cncc2c1O[C@H]1C[C@@H]2N(C(=O)C2(C(F)F)CCC2)C1` [Compound 1-23, (2S,5S)-4-[1-(difluoromethyl)cyclobutane-1-carbonyl]-2,3,4,5-tetrahydro-2,5-methanopyrido[3,4-f][1,4]oxazepine-9-carbonitrile], the IC50 worked out at 88 nM.

Consider `N#Cc1cncc2c1O[C@H]1C[C@@H]2N(C(=O)C23CCC(F)(CC2)C3)C1` [Compound 1-7, (2S,5S)-4-(4-fluorobicyclo[2.2.1]heptane-1-carbonyl)-2,3,4,5-tetrahydro-2,5-methanopyrido[3,4-f][1,4]oxazepine-9-carbonitrile], for which the IC50 came out at 18 nM. Next, `CC(C)(C(=O)N1C[C@@H]2C[C@H]1c1cncc(C#Cc3cnc4ccnn4c3)c1O2)C(F)F` [Compound 2-75, 3,3-difluoro-2,2-dimethyl-1-((2S,5S)-9-(pyrazolo[1,5-a]pyrimidin-6-ylethynyl)-2,3-dihydro-2,5-methanopyrido[3,4-f][1,4]oxazepin-4(5H)-yl)propan-1-one]: 27 nM; `CCC(C)(C#N)C(=O)N1C[C@@H]2C[C@H]1c1cncc(C#N)c1O2` (single isomer, unassigned) [Compound 1-112, (2S,5S)-4-(2-(R or S)-cyano-2-methylbutanoyl)-2,3,4,5-tetrahydro-2,5-methanopyrido[3,4-f][1,4]oxazepine-9-carbonitrile]: 252 nM; `CC(C)(C)C(=O)N1C[C@@H]2C[C@H]1c1cncc(C#N)c1O2` [Compound 1-3, (2S,5S)-4-(2,2-dimethylpropanoyl)-2,3,4,5-tetrahydro-2,5-methanopyrido[3,4-f][1,4]oxazepine-9-carbonitrile]: 50 nM. Next, `Cc1cccc(C#Cc2cncc3c2O[C@H]2C[C@@H]3N(C(=O)C34CCC(F)(CC3)C4)C2)c1` [Compound 2-104, (4-fluorobicyclo[2.2.1]heptan-1-yl)((2S,5S)-9-(m-tolylethynyl)-2,3-dihydro-2,5-methanopyrido[3,4-f][1,4]oxazepin-4(5H)-yl)methanone]: 23 nM; `CC1OCCC1(C)C(=O)N1C[C@@H]2C[C@H]1c1cncc(C#N)c1O2` (stereo partly drawn) [Compound 1-59, (2S,5S)-4-(2,3-dimethyltetrahydrofuran-3-carbonyl)-2,3,4,5-tetrahydro-2,5-methanopyrido[3,4-f][1,4]oxazepine-9-carbonitrile]: 587 nM. `CC(C)(C)CCC#Cc1cncc2c1O[C@H]1C[C@@H]2N(C(=O)C(C)(C)C(F)F)C1` [Compound 2-108, 1-((2S,5S)-9-(5,5-dimethylhex-1-yn-1-yl)-2,3-dihydro-2,5-methanopyrido[3,4-f][1,4]oxazepin-4(5H)-yl)-3,3-difluoro-2,2-dimethylpropan-1-one]: the IC50 was determined as 163 nM. Next, `CC(C)(Cc1ccccc1)C(=O)N1C[C@@H]2C[C@H]1c1cncc(C#N)c1O2` [Compound 1-68, (2S,5S)-4-(2,2-dimethyl-3-phenylpropanoyl)-2,3,4,5-tetrahydro-2,5-methanopyrido[3,4-f][1,4]oxazepine-9-carbonitrile]: 259 nM. For the compound `N#Cc1cncc2c1O[C@H]1C[C@@H]2N(C(=O)C23CCCC2C3(F)F)C1` (stereo partly drawn) [Compound 1-81, (2S,5S)-4-(6,6-difluorobicyclo[3.1.0]hexane-1-carbonyl)-2,3,4,5-tetrahydro-2,5-methanopyrido[3,4-f][1,4]oxazepine-9-carbonitrile], the IC50 stood at 93 nM. Next, `CC(C)(OC(F)(F)F)C(=O)N1C[C@@H]2C[C@H]1c1cncc(C#N)c1O2` [Compound 1-103, (2S,5S)-4-(2-methyl-2-(trifluoromethoxy)propanoyl)-2,3,4,5-tetrahydro-2,5-methanopyrido[3,4-f][1,4]oxazepine-9-carbonitrile]: 163 nM; `CC(C)(C)C(=O)N1C[C@@H]2C[C@H]1c1cncc(Br)c1O2` [Compound 2-8, 1-((2S,5S)-9-bromo-2,3-dihydro-2,5-methanopyrido[3,4-f][1,4]oxazepin-4(5H)-yl)-2,2-dimethylpropan-1-one]: 394 nM. Consider `N#CCc1ccc(C#Cc2cncc3c2O[C@H]2C[C@@H]3N(C(=O)C34CCC(F)(CC3)C4)C2)cc1` [Compound 2-105], for which the IC50 worked out at 18 nM. Next, `Cn1cncc1C#Cc1cncc2c1O[C@H]1C[C@@H]2N(C(=O)C23CCC(C(F)(F)F)(CC2)C3)C1` [Compound 2-55, ((2S,5S)-9-((1-methyl-1H-imidazol-5-yl)ethynyl)-2,3-dihydro-2,5-methanopyrido[3,4-f][1,4]oxazepin-4(5H)-yl)(4-(trifluoromethyl)bicyclo [2.2.1]heptan-1-yl)methanone]: 26 nM; `N#Cc1cncc2c1O[C@H]1C[C@@H]2N(C(=O)C23CC(F)(C2)C3)C1` [Compound 1-92, (2S,5S)-4-(3-fluorobicyclo[1.1.1]pentane-1-carbonyl)-2,3,4,5-tetrahydro-2,5-methanopyrido[3,4-f][1,4]oxazepine-9-carbonitrile]: 84 nM; `Cc1ccncc1C#Cc1cncc2c1O[C@H]1C[C@@H]2N(C(=O)C23CCC(C(F)(F)F)(CC2)C3)C1` [Compound 2-63, ((2S,5S)-9-((4-methylpyridin-3-yl)ethynyl)-2,3-dihydro-2,5-methanopyrido[3,4-f][1,4]oxazepin-4(5H)-yl)(4-(trifluoromethyl)bicyclo [2.2.1]heptan-1-yl)methanone]: 14 nM. Next, `O=C(N1C[C@@H]2C[C@H]1c1cncc(Cl)c1O2)C1(C(F)F)CCC1` [Compound 2-12, ((2S,5S)-9-chloro-2,3-dihydro-2,5-methanopyrido[3,4-f][1,4]oxazepin-4(5H)-yl)(1-(difluoromethyl)cyclobutyl) methanone]: 124 nM. Next, `CC(F)(F)C(C)(C)C(=O)N1C[C@@H]2C[C@H]1c1cncc(Cl)c1O2` [Compound 2-5, 1-[(2S,5S)-9-chloro-2,3-dihydro-2,5-methanopyrido[3,4-f][1,4]oxazepin-4(5H)-yl]-3,3-difluoro-2,2-dimethylbutan-1-one]: 18 nM; `C[C@@H]1C2CN(C(=O)C34CCC(C(F)(F)F)(CC3)C4)[C@H]1c1cncc(C#N)c1O2` (single isomer, unassigned) [Compound 5-4]: 165 nM.
